Experimental data as given in patent publication US20170095496A1, “GALACTOSIDE INHIBITORS FOR NEW USES” (GALECTO BIOTECH AB, priority 2014, published 2017).
Entries after “also recorded” stand apart in the source; their conditions may differ.

Assays:
BV2 microglial cells [1] = assay: Phagocytic assay (uptake of IgG-FITC beads) in α-synuclein-activated BV2 microglia; type: cell-based, Murine; details: for phagocytic ability on adding galectin-3 protein: BV2 cells, 12 h
Protocol: We measure microglial phagocytosis using a phagocytosis assay kit (Cayman Chem, USA) according to the protocol provided by the manufacturer's. We plated 5×10^4 cells/well in 96 well plates for 12 h before treating the cells with α-synuclein 20 μM for additional 12 h. Thereafter IgG-FITC beads we added with or without galectin-3 inhibitor for 12 h. The phagocytic ability was analyzed by a fluorescent plate reader (FluoStar Optima, BMG, LabTech, Sweden).
To test the implication of galectin-3 on phagocytic ability of microglial cells in our model of α-synuclein induced activation, we pre-treated the cells with 100 μM of galectin-3 inhibitor for 30 min and subsequently treated them with α-synuclein aggregates or combining both for 12 h. Microglial cells activated with α-synuclein show high phagocytic activity (FIG. 4).

BV2 cells = assay: XTT viability assay; type: cell-based, Murine; details: alone or in combination with α-synuclein aggregates; data not shown
Protocol: To test if the α-synuclein, the galectin-3 inhibitor, or both, are toxic for BV2 cells in different conditions, we used an in vitro viability assay kit based on a XTT (Sigma-Aldrich) reduction spectrophotometric method to estimate the mitochondrial activity in living cells. The assay was performed following manufacturer's protocol provided in the kit. The absorbance was measured by spectrophotometrically using a plate reader.

BV2 microglial cells [2] = assay: iNOS expression by western blot in BV2 microglia activated with α-synuclein; type: cell-based, Murine; details: for down regulation of iNOS expression: α-synuclein aggregates 20 μM; for inhibition of iNOS expression induced by α-synuclein monomers: inhibitor 30 min pre-treatment, monomers 20 μM
Protocol: Murine (microglial cell line (BV2 cells)) was culture in Dulbecco's modified Eagle's medium (DMEM) containing 10% Fetal Bovine Serum (Invitrogen) with 100 U/ml Penicillin and 100 U/ml Streptomycin (Invitrogen) in 5% CO2 atmosphere at 37° C. One day before BV2 were seeded at a concentration of 2×10^5 cells/well in 24 wells plate (Nunc). The BV2 cells were treated with α-synuclein monomers and aggregates at different concentrations: 5 μM, 10 μM and 20 μM. The cells were also treated with LPS (Sigma-Aldrich) at 1 μg/ml. All the treatments were conducted for 12 h.
We used a small inhibitory molecule for galectin-3 activity, bis-{3-deoxy-3-[4-(3-fluorophenyl)-1H-1,2,3-triazol-1-yl]-β-D-galactopyranosyl} sulfane (Mackinnon et al., 2012, Volarevic et al., 2012, Saksida et al., 2013). This inhibitor was used as pre-treatment for 30 min throughout the study, except in the phagocytic assay when we used 12 h incubation time. To test the inhibitor ability alter α-synuclein-induced inflammation, we tested different concentration, from 5 μM to 100 μM. After 30 min pre-treatment with the inhibitor, we add the treatments of α-synuclein monomers or aggregates of at different concentration for 12 h. The inhibitor is dilute in DMSO (40%) and distilled water (60%) in a stock concentration of 4 mM.
Transfection of BV2 cells was carried out using Lipofectamine 2000 (Invitrogen) following the manufacturer's recommendation. Non-targeting control and galectin-3 siRNAs were obtained from Dharmacon. (SMART pool) siRNA sequence used: siLGal3S3(1) J-041097-09 GAGAGAUACCCAUCGCUUU (SEQ ID NO:4), siLGal3S3(2) J-041097-10 ACUUCAAGGUUGCGGUCAA (SEQ ID NO:5), siLGal3S3(3) J-041097-11 ACAGUGAAACCCAACGCAA (SEQ ID NO:6), siLGal3S3(4) J-041097-12 GGAUGAAGAACCUCCGGGA (SEQ ID NO:7).
Western blot was performed for iNOS and galectin-3 protein levels for BV2 microglial cell or for primary microglial cells. Briefly, 5 or 10 μg of proteins of sample were loaded on 4-20% Mini-Protean TGX Precast Gels (Bio-Rad) and the transferred to Nitrocellulose membrane (Bio-Rad) using Trans-Blot Turbo System (Bio-Rad). We blocked the membrane during 1 h at room temperature with 10% Casein (Sigma-Aldrich) diluted in PBS (tablets, Sigma-Aldrich). After blocking we incubate with the primary appropriate antibody at 4° C. overnight. We clean the membranes with PBS-Tween 20 (0.1%) and then incubate during 2 h at room temperature with the appropriate peroxidase secondary antibody (Vector Labs). Each blot was developed using Clarity Western ECL Substrate (Biorad). The protein level, measured by Bradford assay (Thermo Scientific), was normalized correcting the protein level with β-Actin. The results were normalized to the highest concentration used (20 μM) in each experiment in order to normalize inflammatory response. We also used Western Blot to estimate the composition of the α-synuclein aggregates that we generated from monomeric α-synuclein.
Next, we wanted to assess the role of galectin-3 inhibition in α-synuclein-induced activation of microglial cells. To this end, microglial cells were pretreated with the galectin-3 inhibitor at different concentrations (5, 25, 50 and 100 μM), for 30 min, then the cells were washed to remove the inhibitor to further treat them with α-synuclein monomers or aggregates (20 μM) for 12 h whereafter the iNOS protein expression levels were analyzed. […] Indeed, more than 50% down regulation of iNOS expression was found at 50 and 100 μM inhibitor treatment.
To further test the role of galectin-3 in microglial activation, we decided to knockdown galectin-3 expression in BV2 cells using small interferring RNA (siRNA). Galectin-3 and siRNA negative control knocked-down cells were treated with α-synuclein aggregates (20 μM) for 12 h and their iNOS expression levels were compared using western blot analysis. […] Western blot analysis showing iNOS and β-actin protein levels.

galectins = details: compared with N-acetyllactosamine; cited from earlier work

Compound: galectin-3 protein: galectin-3 protein added to microglial cells in the phagocytic assay
- phagocytic ability on adding galectin-3 protein (BV2 microglial cells [1]): increases the phagocytic ability to a similar extent as α-synuclein aggregates
- phagocytic ability on adding galectin-3 protein (BV2 microglial cells [1]; listed as galectin-3): recover the phagocytic ability

Compound: OC[C@H]1O[C@@H](S[C@@H]2O[C@H](CO)[C@H](O)[C@H](n3cc(-c4cccc(F)c4)nn3)[C@H]2O)[C@H](O)[C@@H](n2cc(-c3cccc(F)c3)nn2)[C@H]1O [TD139, Bis-{3-deoxy-3-[4-(3-fluorophenyl)-1H-1,2,3-triazol-1-yl]-β-D-galactopyranosyl} sulfane]
- cell viability (BV2 cells): does not negatively affect cell viability
- down regulation of iNOS expression (BV2 microglial cells [2]; 50 μM inhibitor, 30 min pre-treatment, 12 h): more than 50%
- down regulation of iNOS expression (BV2 microglial cells [2]; 100 μM inhibitor, 30 min pre-treatment, 12 h): more than 50%
- inhibition of iNOS expression induced by α-synuclein aggregates (BV2 microglial cells [2]; inhibitor 5, 25, 50 and 100 μM, 30 min pre-treatment, aggregates 20 μM, 12 h): significantly inhibited
- inhibition of iNOS expression induced by α-synuclein monomers (BV2 microglial cells [2]; 12 h): not significantly inhibited
- inhibition of iNOS expression induced by α-synuclein monomers (BV2 microglial cells [2]; 12 h, listed as galectin-3 inhibitor): not to monomers
- inflammatory response induced by α-synuclein (BV2 microglial cells [2]; summary statement, BV2 microglia): significant reduction
- phagocytic ability (BV2 microglial cells [1]; 100 μM inhibitor as 30 min pre-treatment only): couldn't find any difference
- phagocytic ability (BV2 microglial cells [1]; 100 μM inhibitor combined with α-synuclein aggregates 20 μM for 12 h): reduced phagocytic ability; also recorded: robustly inhibited the phagocytosis
- phagocytic ability (BV2 microglial cells [1]; 100 μM inhibitor combined with α-synuclein aggregates 20 μM for 12 h, listed as galectin-3 inhibitor): robustly reduced to control levels

Compound: OC[C@H]1O[C@@H](S[C@@H]2O[C@H](CO)[C@H](O)[C@H](O)[C@H]2O)[C@H](O)[C@@H](O)[C@H]1O [thiodigalactoside]
- efficiency as galectin inhibitor (galectins): approximately as efficient as N-acetyllactosamine
